The values that follow come from US12134611B2, “Compounds and compositions for treating conditions associated with NLRP activity” (Novartis AG, priority 2018, dated 2024).

T1 sequence (Q96P20 whole entry): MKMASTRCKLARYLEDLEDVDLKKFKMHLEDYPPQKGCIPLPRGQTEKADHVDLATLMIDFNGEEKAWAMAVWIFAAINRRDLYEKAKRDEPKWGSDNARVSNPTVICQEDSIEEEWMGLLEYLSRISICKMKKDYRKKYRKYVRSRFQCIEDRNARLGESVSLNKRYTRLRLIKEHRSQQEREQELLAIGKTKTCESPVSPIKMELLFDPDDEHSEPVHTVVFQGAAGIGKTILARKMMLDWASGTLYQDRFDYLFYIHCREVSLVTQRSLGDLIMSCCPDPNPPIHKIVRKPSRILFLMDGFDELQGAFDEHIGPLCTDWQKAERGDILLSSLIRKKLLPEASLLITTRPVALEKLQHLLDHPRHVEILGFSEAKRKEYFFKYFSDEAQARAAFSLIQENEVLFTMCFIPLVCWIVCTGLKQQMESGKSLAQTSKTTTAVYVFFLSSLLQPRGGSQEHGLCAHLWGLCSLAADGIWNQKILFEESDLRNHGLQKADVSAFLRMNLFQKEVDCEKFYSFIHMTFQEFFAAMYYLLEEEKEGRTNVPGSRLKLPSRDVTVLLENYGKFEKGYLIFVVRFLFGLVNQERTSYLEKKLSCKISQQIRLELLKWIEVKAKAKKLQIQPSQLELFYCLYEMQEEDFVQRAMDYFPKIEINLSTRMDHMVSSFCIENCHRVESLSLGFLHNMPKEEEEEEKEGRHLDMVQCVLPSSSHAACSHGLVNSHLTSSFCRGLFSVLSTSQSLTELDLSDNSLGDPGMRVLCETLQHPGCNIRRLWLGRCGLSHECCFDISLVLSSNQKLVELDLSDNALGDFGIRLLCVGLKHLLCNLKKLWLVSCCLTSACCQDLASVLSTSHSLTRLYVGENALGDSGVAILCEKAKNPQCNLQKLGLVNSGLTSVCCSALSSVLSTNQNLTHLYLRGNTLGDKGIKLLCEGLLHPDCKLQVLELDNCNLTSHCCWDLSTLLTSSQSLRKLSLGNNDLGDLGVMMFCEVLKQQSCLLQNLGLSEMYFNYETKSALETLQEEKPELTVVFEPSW

This experiment addresses T1, hNLRP3 (Homo sapiens, UniProt Q96P20).
T1 construct: THP-1 cells were purchased from the American Type Culture Collection; host or cells: THP-1 cells, PMA-differentiated, stimulated with gramicidin
Nature of the experiment: IL-1β production in PMA-differentiated THP-1 cells stimulated with gramicidin (hTHP-1 assay). The format is cell-based. The conditions noted are these: read-out: NLRP3 Antagonist, hNLRP3 (THP-1, IL-1b) Normalized: GeoMean IC50.
What is called IC50 is the concentration that inhibits the measured activity by half. On to `CC(C)(O)c1ccc2c(c1)S(=O)(=NC(=O)Nc1c3c(nc(C4CC4)c1C1CC1)CCC3)NC2=O` (stereo not shown) [Compound 106, 1-(2,3-dicyclopropyl-6,7-dihydro-5H-cyclopenta[b]pyridin-4-yl)-3-(6-(2-hydroxypropan-2-yl)-1-oxido-3-oxo-2,3-dihydro-1l4-benzo[d]isothiazol-1-ylidene)urea], for which the concentration for half-maximal inhibition (IC50) was 1 to 5 µM.

For the compound `CN(C)Cc1ccc2c(c1)S(=O)(=NC(=O)Nc1c3c(cc4c1CCC4)CCC3)NC2=O` (stereo not shown) [Compound 110, 1-(6-((dimethylamino)methyl)-1-oxido-3-oxo-2,3-dihydro-1l4-benzo[d]isothiazol-1-ylidene)-3-(1,2,3,5,6,7-hexahydro-s-indacen-4-yl)urea], the concentration for half-maximal inhibition (IC50) was 1 to 5 µM.

For the compound `O=C(N=S1(=O)NC(=O)c2ccccc21)Nc1c2c(cc3c1CCC3)CCC2` (racemic) [Compound 129, 3-(1,3-dioxo-2,3-dihydro-1-^λ-6,2-benzothiazol-1-ylidene)-1-(1,2,3,5,6,7-hexahydro-s-indacen-4-yl)urea], the 50% inhibitory concentration (IC50) was in the range of 1 to 5 µM.

Turning to `Cc1c(C(F)(F)F)nc2c(c1NC(=O)N=S1(=O)NC(=O)c3ccc(C(C)(C)O)cc31)CCC2` (stereo not shown) [Compound 108, 1-(6-(2-hydroxypropan-2-yl)-1-oxido-3-oxo-2,3-dihydro-1l4-benzo[d]isothiazol-1-ylidene)-3-(3-methyl-2-(trifluoromethyl)-6,7-dihydro-5H-cyclopenta[b]pyridin-4-yl)urea], the IC50 was 1 to 5 µM.

Regarding `O=C(Nc1c2c(cc3c1CCC3)CCC2)NS1(=O)=NC(=O)c2ccc(Cl)cc21` (stereo not shown) [Compound 128, 3-(6-chloro-1,3-dioxo-2,3-dihydro-1-^λ-6,2-benzothiazol-1-ylidene)-1-(1,2,3,5,6,7-hexahydro-s-indacen-4-yl)urea], the IC50 was in the range of 5 to 30 µM.

For `CN(C)C(=O)c1ccc2c(c1)S(=O)(=NC(=O)Nc1c3c(cc4c1CCC4)CCC3)NC2=O` (stereo not shown) [Compound 214, 1-(((1,2,3,5,6,7-hexahydro-s-indacen-4-yl)carbamoyl)imino)-N,N-dimethyl-3-oxo-2,3-dihydro-1H-1l4-benzo[d]isothiazole-6-carboxamide 1-oxide], the half-inhibitory concentration (IC50) lay within 5 to 30 µM.

In the case of `O=C(N=S1(=O)NC(=O)c2ccc(CN3CCC3)cc21)Nc1c2c(cc3c1CCC3)CCC2` (stereo not shown) [Compound 204, 1-(6-(azetidin-1-ylmethyl)-1-oxido-3-oxo-2,3-dihydro-1l4-benzo[d]isothiazol-1-ylidene)-3-(1,2,3,5,6,7-hexahydro-s-indacen-4-yl)urea], the IC50 was 0.2 to 1 µM.

Turning to `O=C(N=S1(=O)CC(Cc2ccccc2)C(=O)N1)Nc1c2c(cc3c1CCC3)CCC2` (single isomer, unassigned) [Compound 249a, 1-((1R,4S or 4R)-4-benzyl-1-oxido-3-oxo-1l6-isothiazolidin-1-ylidene)-3-(1,2,3,5,6,7-hexahydro-s-indacen-4-yl)urea], the IC50 fell in the range of 0.2 to 1 µM.

For the compound `O=C1CCS(=O)(=NC(=O)Nc2c3c(cc4c2CCC4)CCC3)N1` (single isomer, unassigned) [Compound 131a, (R or S)-1-(1,2,3,5,6,7-hexahydro-s-indacen-4-yl)-3-(1-oxido-3-oxo-1l6-isothiazolidin-1-ylidene)urea], the IC50 was 1 to 5 µM.

Take `COC(=O)c1ccc2c(c1)S(=O)(=NC(=O)Nc1c3c(cc4c1CCC4)CCC3)NC2=O` (stereo not shown) [Compound 134, methyl 1-(((1,2,3,5,6,7-hexahydro-s-indacen-4-yl)carbamoyl)imino)-3-oxo-2,3-dihydro-1H-1l4-benzo[d]isothiazole-6-carboxylate 1-oxide]: the IC50 was 5 to 30 µM.

In the case of `CC(C)c1cc(C(F)F)cc(C(C)C)c1CC(=O)N=S1(=O)NC(=O)c2cc(CN(C)C)ccc21` (stereo not shown) [Compound 124, 2-[4-(difluoromethyl)-2,6-bis(propan-2-yl)phenyl]-N-{5-[(dimethylamino)methyl]-1,3-dioxo-2,3-dihydro-1$l6,2-benzothiazol-1-ylidene}acetamide], the IC50 is more than 30 µM.

Consider `COC(=O)Cc1ccc2c(c1)S(=O)(=NC(=O)Nc1c3c(cc4c1CCC4)CCC3)NC2=O` (stereo not shown) [Compound 209, methyl 2-(1-(((1,2,3,5,6,7-hexahydro-s-indacen-4-yl)carbamoyl)imino)-1-oxido-3-oxo-2,3-dihydro-1H-1l4-benzo[d]isothiazol-6-yl)acetate], for which the half-maximal inhibitory concentration (IC50) was 5 to 30 µM.

`O=C(N=S1(=O)CC2(COC2)C(=O)N1)Nc1c2c(cc3c1CCC3)CCC2` (stereo not shown) [Compound 132, 1-(1,2,3,5,6,7-hexahydro-s-indacen-4-yl)-3-(6-oxido-8-oxo-2-oxa-6l6-thia-7-azaspiro[3.4]octan-6-ylidene)urea]: the half-inhibitory concentration (IC50) fell in the range of 1 to 5 µM.

Turning to `CNC(=O)c1ccc2c(c1)S(=O)(=NC(=O)Nc1c3c(cc4c1CCC4)CCC3)NC2=O` (stereo not shown) [Compound 213, 1-(((1,2,3,5,6,7-hexahydro-s-indacen-4-yl)carbamoyl)imino)-N-methyl-3-oxo-2,3-dihydro-1H-1l4-benzo[d]isothiazole-6-carboxamide 1-oxide], the IC50 is 1 to 5 µM.

Turning to `COCc1ccc2c(c1)S(=O)(=NC(=O)Nc1c3c(cc4c1CCC4)CCC3)NC2=O` (stereo not shown) [Compound 217, 1-(1,2,3,5,6,7-hexahydro-s-indacen-4-yl)-3-(6-(methoxymethyl)-1-oxido-3-oxo-2,3-dihydro-1l4-benzo[d]isothiazol-1-ylidene)urea], the half-inhibitory concentration (IC50) fell in the range of 0.2 to 1 µM.

With `O=C(N=S1(=O)CC2(COC2)C(=O)N1)Nc1c2c(cc3c1CCC3)CCC2` (single isomer, unassigned) [Compound 132b, (R or S)-1-(1,2,3,5,6,7-hexahydro-s-indacen-4-yl)-3-(6-oxido-8-oxo-2-oxa-6l6-thia-7-azaspiro[3.4]octan-6-ylidene)urea], the IC50 fell in the range of 5 to 30 µM.

On to `COC(=O)c1ccc2c(c1)S(=O)(=NC(=O)Nc1c3c(cc4c1CCC4)CCC3)NC2=O` (single isomer, unassigned) [Compound 134b, methyl (S or R)-1-(((1,2,3,5,6,7-hexahydro-s-indacen-4-yl)carbamoyl)imino)-3-oxo-2,3-dihydro-1H-1l4-benzo[d]isothiazole-6-carboxylate 1-oxide], for which the IC50 lay in the range of 5 to 30 µM.

Take `O=C(N=S1(=O)NC(=O)c2ccc(CO)cc21)Nc1c2c(cc3c1CCC3)CCC2` (stereo not shown) [Compound 216, 1-(1,2,3,5,6,7-hexahydro-s-indacen-4-yl)-3-(6-(hydroxymethyl)-1-oxido-3-oxo-2,3-dihydro-1l4-benzo[d]isothiazol-1-ylidene)urea]: the IC50 lay within 0.2 to 1 µM.

Consider `O=C(N=S1(=O)NC(=O)c2cccnc21)Nc1c2c(cc3c1CCC3)CCC2` (stereo not shown) [Compound 223, 1-(1,2,3,5,6,7-hexahydro-s-indacen-4-yl)-3-(1-oxido-3-oxo-2,3-dihydro-1l4-isothiazolo[5,4-b]pyridin-1-ylidene)urea], for which the IC50 was 5 to 30 µM.
